Reference: PubChem BioAssay (NCI)
Values joined by “and” are separate entries in the source; they are usually repeats but may differ in a detail not shown here. Equal entries are not always repeated.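 These data come from cells grown in 96-well plates and exposed to compound for 48 hours at five concentrations. The concentration for 50% growth inhibition is given as GI50. TGI is the concentration that stops growth completely.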

Columns and labels:
Assay in all cases: growth of human tumour cells (NCI), 48 h
IGROV1 ovarian = system: IGROV1 ovarian
M14 melanoma = system: M14 melanoma
SNB-78 CNS = system: SNB-78 CNS
SNB-75 CNS = system: SNB-75 CNS
DLD-1 colon = system: DLD-1 colon
SF-268 CNS = system: SF-268 CNS
DU-145 prostate = system: DU-145 prostate
OVCAR-8 ovarian = system: OVCAR-8 ovarian
NCI-H23 lung = system: NCI-H23 lung
SNB-19 CNS = system: SNB-19 CNS

Structure (SMILES)	GI50 (IGROV1 ovarian)	GI50 (M14 melanoma)	TGI (M14 melanoma)	GI50 (SNB-78 CNS)	GI50 (SNB-75 CNS)	GI50 (DLD-1 colon)	GI50 (SF-268 CNS)	TGI (DU-145 prostate)	GI50 (OVCAR-8 ovarian)	GI50 (NCI-H23 lung)	TGI (IGROV1 ovarian)	TGI (SNB-78 CNS)	TGI (SNB-19 CNS)	TGI (SNB-75 CNS)	TGI (DLD-1 colon)	TGI (SF-268 CNS)	TGI (OVCAR-8 ovarian)	TGI (NCI-H23 lung)
COC(=O)C12OCC34C(CC5C(C)=CC(=O)C(O)C5(C)C3C(O)C1O)OC(=O)C(OC(=O)CC(C)C)C24 (stereo not drawn)	< 0.0288 µM and 0.05 µM	0.0034 µM	0.0129 µM and 0.0689 µM	0.0748 µM and 0.05 µM	0.0825 µM and 0.05 µM	0.0633 µM and 0.05 µM	0.0671 µM and 0.05 µM	0.00425 µM	< 0.0391 µM and 0.05 µM	< 0.046 µM and 0.05 µM	–	–	–	–	–	–	–	–
Cn1c(-c2ccccc2)c/c(=N\NS(C)(=O)=O)c2cc(S(=O)(=O)O)ccc21	–	–	> 100 µM	–	–	–	–	–	–	–	> 100 µM	> 100 µM	> 100 µM	> 100 µM	> 100 µM	> 100 µM	> 100 µM	> 100 µM
O=[N+]([O-])c1ccc(C2N3CCCCC3[C@@H]3c4[nH]c5ccccc5c4CCN23)cc1 (stereo partly drawn)	–	–	38.9 µM	–	–	–	–	–	–	–	> 100 µM	21.6 µM	67.1 µM	3.29 µM	57.7 µM	43 µM	> 100 µM	35.7 µM
COc1cc([C@@H]2c3cc4c(cc3[C@@H](NC(=O)c3ccc([N+](=O)[O-])cc3)C3COC(=O)[C@@H]32)OCO4)cc(OC)c1O (stereo partly drawn)	–	–	> 100 µM	–	–	–	–	–	–	–	3.44 µM	75.5 µM	6.06 µM	4.86 µM	11.3 µM	5.77 µM	6.05 µM	1.46 µM
N#Cc1ccccc1/C=N/O	–	–	> 100 µM	–	–	–	–	–	–	–	> 100 µM	> 100 µM	> 100 µM	> 100 µM	> 100 µM	> 100 µM	> 100 µM	> 100 µM
O=C1CC23CC(=O)CC2(C1)c1ccccc1C3=O (stereo not drawn)	–	–	> 100 µM	–	–	–	–	–	–	–	> 100 µM	> 100 µM	> 100 µM	> 100 µM	> 100 µM	> 100 µM	> 100 µM	> 100 µM
O=CN/C=C/c1ccccc1O	–	–	> 100 µM	–	–	–	–	> 100 µM	–	–	> 100 µM	> 100 µM	> 100 µM	> 100 µM	> 100 µM	> 100 µM	> 100 µM	> 100 µM
COC(=O)c1c/c(=N\NC(=O)CC(=O)Nc2ccc(C)cc2)c2ccccc2o1	–	–	> 100 µM	–	–	–	–	–	–	–	> 100 µM	> 100 µM	> 100 µM	> 100 µM	> 100 µM	> 100 µM	> 100 µM	> 100 µM
Cc1cc(NC(=O)C(=O)Cc2nc3ccccc3s2)ccc1Cl	–	–	> 100 µM	–	–	–	–	> 100 µM	–	–	> 100 µM	> 100 µM	> 100 µM	> 100 µM	> 100 µM	> 100 µM	> 100 µM	> 100 µM
Clc1ccc(CCn2cncn2)c(Cl)c1	–	–	> 100 µM	–	–	–	–	–	–	–	> 100 µM	> 100 µM	> 100 µM	> 100 µM	> 100 µM	> 100 µM	> 100 µM	> 100 µM
